In patent US11458141B2, “Aryl hydrocarbon receptor (AhR) agonists for the prevention and treatment of inflammatory disorders” (The Johns Hopkins University, priority 2017, dated 2022):
“Also recorded” adds a separate entry of the source.

What was measured:
[1] = tested on: AHR signaling pathway; assay: Maternal I3C administration, Cypla1 mRNA in ileum of offspring with NEC; type: in vivo, mouse; details: mums 25 mg/kg oral gavage E7 to P7
Description: (§1) The pups whose mums received 25 mg/kg indole-3-carbinol (13C) by oral gavage starting from the embryonic age 7 (E7) of the fetus until the postnatal day 7 (P7) were included in maternal […]-rich group, while the pups whose mums received vehicle were included in maternal […]-free group. Necrotizing enterocolitis (NEC) was induced in 7-day-old mouse pups by gavage feeding and hypoxia exposure for 4 days. The ileum was harvested at the end of experiment and the mRNA expression of target genes was analyzed by qPCR. Referring now to FIG. 7, the mRNA expression of Cypla1, the down-stream gene of AHR signaling, was quantified in the ileum of experimental NEC models. Data are represented as mean±SEM; *p<0.05 between indicated groups; each dot represents an individual mouse.

[2] = tested on: TLR4 signaling in the intestinal epithelium; assay: LPS-induced TLR4 signaling and Cypla1 in the intestinal mucosa of mice; type: in vivo, mouse
[3] = tested on: AHR activation and TLR4 signaling in enteroids; assay: Mouse enteroids: Cypla1 induction and TLR4 signaling; type: cell-based; details: I3C 200 μM
Text: AHR activation by I3C or breast milk limits TLR4 signaling in the intestinal epithelium (FIG. 14). In seeking to investigate how AHR signaling attenuates NEC severity, whether AHR activation could limit the degree of TLR4 signaling in the gut was investigated. To do so, enteroids were derived from wild-type mice, which are intestinal cultures containing all cell lineages derived from intestinal crypts, as have been described.

[4] = tested on: mice with NEC; assay: Maternal I3C administration, Tnf alpha and Il6 mRNA in ileum of offspring with NEC; type: in vivo, mouse; details: mums 25 mg/kg oral gavage E7 to P7, NEC groups
Description: as §1, with “8,” for “7,”, “pro-inflammatory cytokine tumor necrosis factor alpha (Tnf alpha)” for “Cypla1, the down-stream gene of AHR signaling,”, “mouse. […] Referring now to FIG. 9, the mRNA expression of pro-inflammatory cytokine Interleukin-6 (Il6) was quantified in the ileum of experimental NEC models. Data are represented as mean±SEM; *p<0.05 between indicated groups; each dot represents an individual mouse.” for “mouse.”

[5] = tested on: Tlr4 mRNA in the ileum; assay: Ileal Tlr4 mRNA and microRNA expression in neonatal mice given I3C; type: in vivo, mouse; details: 7-day-old mice, 25 mg/kg oral gavage, after 24 hours
Description: Neonatal mice at the age of 7 days old were given AHR agonist […] (25 mg/kg) via oral gavage, and the ileal expression of Tlr4 mRNA and microRNAs, which have been reported to down-regulate Tlr4 transcription, were quantified after 24 hours. Referring now to FIG. 24, the mRNA expression of Tlr4 was quantified in the ileum of neonatal mice treated with AHR agonist […]. Data are represented as mean±SEM; *p<0.05 between indicated groups; each dot represents an individual mouse. […] Referring now to FIG. 25, the expression of let-71, miR-223, and miR-146b, which are microRNAs known to inhibit Tlr4 mRNA expression, was quantified in the ileum of neonatal mice treated with AHR agonist […]. Data are represented as mean±SEM; *p<0.05 between indicated groups; each dot represents an individual mouse.

[6] = tested on: mice with NEC; assay: I3C to the pregnant mother (50 mg/kg/day), AHR activation and NEC in the pup; type: in vivo, mouse
Text: The administration of the AHR ligand I3C to the pregnant mother prevents NEC in the newborn mouse (FIG. 16). […] Another aspect of the presently disclosed subject matter is to develop a diet rich in AHR ligands that could be administered to the mother, and protect against the development of NEC. […]

[7] = I3C 50 mg/kg/d to pregnant mice

OCc1c[nH]c2ccccc12 [I3C, indole-3-carbinol]
mRNA expression of Cypla1 (AHR signaling) in offspring [1]: significantly activated the AHR signaling pathway
enterocyte apoptosis after TLR4 activation ([2]; intestinal mucosa, I3C, LPS): reversed the deleterious effects of TLR4 activation on enterocyte apoptosis; also recorded: reverses LPS induced apoptosis
mucosal healing / proliferation after TLR4 activation ([2]; intestinal mucosa, I3C, LPS): improved mucosal healing; also recorded: reverses LPS induced apoptosis and impaired proliferation
TLR4-induced (LPS) cytokine induction in the intestinal mucosa ([2]; wild type mice, I3C 50 mg/kg, LPS 5 mg/kg): reduced TLR4-induced (LPS 5 mg/kg) cytokine induction; also recorded: reduces TLR4 signaling; also recorded: reduces LPS-induced IL-6
Cypla1 expression ([2]; wild-type mice, I3C 50 mg/kg): induced Cypla1 expression; also recorded: increases Cypla1
Cypla1 induction ([3]; enteroids from wild-type mice): significantly induced the downstream molecule Cypla1; also recorded: induces Cypla1
TLR4 signaling (cytokine/TNF induction) ([3]; enteroids, conditioned media from NEC stool bacteria): reduced TLR4 signaling; also recorded: reduces TNF
Il6 mRNA expression in offspring [4]: significantly reduced the Il6 expression
Tnf alpha mRNA expression in offspring [4]: significantly reduced the Tnf alpha expression
expression of let-7i in the ileum [5]: significantly increased
expression of miR-146b in the ileum [5]: significantly increased
expression of miR-223 in the ileum [5]: significantly increased
mRNA expression of Tlr4 in the ileum [5]: significantly reduced the expression of Tlr4 mRNA
NEC severity in the pup [6, 7]: significantly reduced NEC severity; also recorded: prevents NEC in the newborn mouse pup
cytokine (IL-6) induction in the pup [6, 7]: reduced cytokine induction; also recorded: decreased IL-6 expression
enterocyte apoptosis in the pup [6, 7]: reduced enterocyte apoptosis
mucosal injury / histology in the pup [6, 7]: reduced; also recorded: improved histology
proliferation in the pup intestinal mucosa [6, 7]: improved proliferation
Cypla1 expression in the intestine (AHR activation in utero) ([6]; I3C oral 50 mg/kg/day to the pregnant mother, 50 mg/kg/day): induced the downstream gene Cypla1 in the pup intestine; also recorded: leads to expression of Cypla1 in the intestinal epithelium of both the mother and the fetus
